In PMC5581232 (European journal of medicinal chemistry, 2017):
Read-outs that look alike come from different tables or passages of the source.

Experiments:
[1] = test system: HBeAg secretion (HBV cccDNA formation); experiment: HBeAg reporter cell-based assay; set-up: species or system Hepatitis B virus; settings: for Effect on secretion of HBeAg (in words): 3TC and ETV at 10 μM
[2] = test system: HBV; experiment: Anti-HBV activity: HBV DNA replication; type: cell-based, Hepatitis B virus; settings: for Anti-HBV activity (in words): HepAD38 cells
[3] = molecular target: HBV Cp149 (Hepatitis B virus genotype D subtype ayw, UniProt P03146); experiment: HBV Cp149 capsid formation by negative-stain electron microscopy; type: biochemical; settings: 20 μM, 1 hr pre-incubation, assembly induced with NaCl overnight
Chain of HBV Cp149 (P03146 1-149): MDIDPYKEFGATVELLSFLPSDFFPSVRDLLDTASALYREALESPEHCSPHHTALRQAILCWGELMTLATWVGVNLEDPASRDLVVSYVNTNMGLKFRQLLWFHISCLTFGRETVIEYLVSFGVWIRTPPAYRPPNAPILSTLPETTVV

[4] = Hepatitis B virus, HePAD38, read-out: HBeAg Secretion EC90, HepAD38 cells, ELISA
[5] = read-out: HBeAg Secretion EC90, HepAD38 cells, ELISA

| Structure (SMILES) | Effect on secretion of HBeAg (in words) ([1]; HepAD38 cells) | Effect on HBV Cp149 capsid formation (morphology, negative-stain TEM) [3] | EC90 [1, 4] [µM] | EC90 [1, 5] [µM] | Anti-HBV activity (in words) [2] | also measured |
| --- | --- | --- | --- | --- | --- | --- |
| Nc1ccn([C@@H]2CS[C@H](CO)O2)c(=O)n1 [Compound 3TC, lamivudine, reference compound] | no effect | – | – | – | – | EC50 ([2]; Hepatitis B virus, HePAD38, read-out: HBV DNA – Extracellular EC50): 0.04 ± 0.03 µM |
| O=C(Nc1ccc(F)c(F)c1)c1cc(S(=O)(=O)NC2CCCC2)ccc1F [Compound 4a, 5-(N-Cyclopentylsulfamoyl)-N-(3,4-difluorophenyl)-2-fluorobenzamide] | – | form greater numbers of disfigured circular assemblies | 3 to 4 | 4.6 ± 2 | – | – |
| O=C(Nc1ccc(F)c(F)c1)c1cc(S(=O)(=O)N2CC(F)(F)C2)ccc1F [Compound 4f, 5-((3,3-Difluoroazetidin-1-yl)sulfonyl)-N-(3,4-difluorophenyl)-2-fluorobenzamide] | – | a large number of incomplete, but typically spherical capsids aggregated into clusters | 3 to 4 | 3.2 ± 0.01 | – | – |
| O=C(Nc1cc(S(=O)(=O)NC2CCCC2)ccc1F)c1ccc(F)c(F)c1 [Compound 16, N-(5-(N-Cyclopentylsulfamoyl)-2-fluorophenyl)-3,4-difluorobenzamide] | – | – | – | – | complete loss of activity | – |
| O=C(NC1(c2ccc(F)c(F)c2)CC1)c1cc(S(=O)(=O)NC2CCCC2)ccc1F [Compound 19, 5-(N-Cyclopentylsulfamoyl)-N-(1-(3,4-difluorophenyl)cyclopropyl)-2-fluorobenzamide] | – | – | – | – | complete loss of activity | – |
| CC(C)(NC(=O)c1cccc(S(=O)(=O)NC2CCCC2)c1)c1ccc(F)c(F)c1 [Compound 21, 3-(N-Cyclopentylsulfamoyl)-N-(2-(3,4-difluorophenyl)propan-2-yl)benzamide] | – | properly formed HBV Cp149 capsids | – | – | complete loss of activity | – |
| C=C1[C@H](CO)[C@@H](O)C[C@@H]1n1cnc2c(=O)[nH]c(N)nc21.O [ETV, entecavir] | no effect | – | – | – | – | – |
| CCOC(=O)C1=C(CN2CCOCC2)NC(c2nccs2)=NC1c1ccc(F)cc1Br (stereo not shown) [GLS-4] | reduced secretion of HBeAg | – | 2 | 1.9 ± 0.04 | – | – |
